Laboratory results as given in patent publication EP4667483A1, “HUMAN TRANSFERRIN RECEPTOR-BINDING PEPTIDE” (JCR Pharmaceuticals Co., Ltd., priority 2023, dated 2024).
Each block holds one molecule with its values, some of them ahead of it. Numbered stars: 1 amine (or outer) side, 2 acyl side, 3 side chain; on linkers, the order of the positions; unused ones are H or OH. Bridge positions count the residues as written; N and C are the ends. Square brackets hold non-standard residues; d marks the D form. Peptide text beside a SMILES is read from it. * marks the point of attachment. CH2CO(D-glucamine) = O=C(C*)NC[C@H](O)[C@@H](O)[C@H](O)[C@H](O)CO; NH(1-deoxy-D-glucityl) = OC[C@@H](O)[C@@H](O)[C@H](O)[C@@H](O)CN*; Trp(1-CH2COOH) = N[C@@H](Cc1cn(CC(=O)O)c2ccccc12)C(=O)O; NMePhe(3-Cl) = CN[C@@H](Cc1cccc(Cl)c1)C(=O)O; NMeW = CN[C@@H](Cc1c[nH]c2ccccc12)C(=O)O; X6 = Cc1cc(C[C@H](N[*:1])C(=O)[*:2])ccn1; NMeY = CN[C@@H](Cc1ccc(O)cc1)C(=O)O; Nva(3-Et) = CCC(CC)[C@H](N)C(=O)O; PEG4 = NCCOCCOCCOCCOCCC(=O)O; Carboxymethyl = O=C(O)C*

What was measured:
[1] = target: T1, human transferrin receptor (hTfR) (Homo sapiens, UniProt P02786); test: SPR measurement under pH 6.0 conditions (Biacore T200, NTA chip, immobilized hTfR); assay type: binding; details: read-out: hTfR SPR pH6.0 KD
T1 sequence (P02786 whole entry): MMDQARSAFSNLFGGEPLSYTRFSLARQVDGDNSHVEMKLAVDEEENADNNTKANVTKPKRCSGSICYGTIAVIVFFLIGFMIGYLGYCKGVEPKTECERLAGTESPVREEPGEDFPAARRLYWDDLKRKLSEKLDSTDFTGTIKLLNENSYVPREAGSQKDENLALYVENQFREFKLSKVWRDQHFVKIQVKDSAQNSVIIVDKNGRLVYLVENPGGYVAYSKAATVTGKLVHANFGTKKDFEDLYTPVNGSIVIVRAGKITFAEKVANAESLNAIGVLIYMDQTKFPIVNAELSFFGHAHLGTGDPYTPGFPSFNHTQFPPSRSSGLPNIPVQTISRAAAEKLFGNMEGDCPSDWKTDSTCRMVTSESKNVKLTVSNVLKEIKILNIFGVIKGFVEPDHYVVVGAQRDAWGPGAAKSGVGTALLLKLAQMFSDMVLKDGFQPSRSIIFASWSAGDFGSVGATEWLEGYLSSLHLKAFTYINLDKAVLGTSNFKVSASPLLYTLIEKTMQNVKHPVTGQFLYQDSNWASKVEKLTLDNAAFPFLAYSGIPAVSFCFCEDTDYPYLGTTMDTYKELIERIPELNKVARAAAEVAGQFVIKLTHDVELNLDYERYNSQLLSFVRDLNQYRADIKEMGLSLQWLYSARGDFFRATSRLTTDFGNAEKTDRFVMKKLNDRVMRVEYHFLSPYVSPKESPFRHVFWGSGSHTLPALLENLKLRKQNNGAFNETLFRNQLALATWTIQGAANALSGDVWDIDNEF
Procedure: (§1) Molecular interactions between the synthesized peptides and the transferrin receptor (hTfR) were evaluated by surface plasmon resonance (SPR) using the following method. The specific assay procedure is described below.
An NTA sensor chip (Cytiva) was inserted in a Biacore T200 (Cytiva), a priming operation was performed 3 times with a running buffer: HBS-P+ pH 6.0 (Cytiva), and an equilibrium state was created at a flow rate of 30 µL/min. A ligand immobilization operation was carried out at a flow rate of 10 µL/min.
The surface of the NTA sensor chip was washed with 350 mM EDTA solution, nickel ions were loaded into the carbomethyldextran chains of the sensor chip with a 500 µM aqueous nickel chloride solution, and then washing was performed with 3 mM EDTA solution. After mixing 50 µL of each of 60 mM EDC solution (Cytiva) and 650 mM NHS solution (Cytiva), the mixture was reacted for 420 seconds at a flow rate of 10 µL/min. 150 µL of 0.2 µM hTfR solution was prepared by diluting with 10 mM acetic acid solution (pH 5.0), and reacted for 420 seconds at a flow rate of 10 µL/min to immobilize hTfR on the NTA sensor chip. For the human transferrin receptor (hTfR), the recombinant hTfR described in Example 2 of WO2018/124121 was used. After immobilization, capping was performed by reacting with 1.0 M ethanolamine aqueous solution (Cytiva) at a flow rate of 10 µL/min for 420 seconds. Peptide lysate prepared in DMSO to 10 mM was diluted with the running buffer to a final concentration of 10 µM peptide lysate, and then peptide solutions of 250 nM, 125 nM, 62.5 nM, 25 nM, and 12.5 nM were prepared. The kinetics of the peptide against hTfR was obtained by SPR measurement using the above samples.
(§2) The kinetic evaluation model was single-cycle kinetics, and curve fitting was performed using Biacore T200 Evaluation Software Version 3.0 (Cytiva). The binding of the peptide to hTfR was evaluated by performing curve fitting on the obtained sensorgram by the least squares method and obtaining the kon value, the koff value, and the KD value.

[2] = target: T1, human transferrin receptor (hTfR); test: SPR measurement under pH 7.4 conditions (Biacore T200, CM3 chip, hTfR captured by His Tag antibody); assay type: binding; details: SPR, pH 7.4; Table 2-2; read-out: hTfR SPR pH7.4 KD
Procedure: as §1
An CM3 sensor chip (Cytiva) was inserted into BiacoreT200 (Cytiva), then a priming operation was performed three times by using a running buffer: HBS-P+, pH7.4 (Cytiva), and an equilibrium state was created at a flow rate of […]. Ligand immobilization was performed at a flow rate of 10 µL/min. After mixing 50 µL each of 60 mM EDC solution (Cytiva) and 650 mM NHS solution (Cytiva), the mixture was reacted at a flow rate of 10 µL/min for 420 seconds. 150 µL of […] THE His Tag Antibody, mAb, Mouse (GenScript) was prepared by diluting with 10 mM acetic acid solution (pH 5.0), and reacted at a flow rate of 10 µL/ min for 420 seconds. Then, THE His Tag Antibody, mAb, Mouse (GenScript) was immobilized as a capture molecule on the CM3 sensor chip. After immobilization, capping was performed by reacting with 1.0 M ethanolamine solution (Cytiva) at a flow rate of 10 µL/min for 420 seconds. 300 nM hTfR was captured at a flow rate of 10 µL/min, a peptide solution prepared at 10 mM in DMSO was diluted with running buffer to achieve a final concentration of 10 µM, and peptide solutions at 250 nM, 125 nM, 62.5 nM, 25 nM, and 12.5 nM were prepared. . The peptide samples were reacted at a flow late of 30 µL/min for 120 seconds, followed by dissociation for 600 seconds. The kinetics of the peptide against hTfR was obtained by SPR measurement for the above samples.
as §2

[3] = SPR, pH 6.0, peptide with the linker named in the table

Structure (SMILES): CC[C@H](C)[C@@H]1NC(=O)[C@H](Cc2ccc(OCC(=O)NC[C@H](O)[C@@H](O)[C@H](O)[C@H](O)CO)cc2)NC(=O)[C@H](Cc2ccc(O)cc2)NC(=O)[C@H](CC(N)=O)NC(=O)[C@H](Cc2c[nH]c3ccccc23)NC(=O)[C@H](C(C)C)NC(=O)[C@H](Cc2cccc(Cl)c2)N(C)C(=O)[C@H](C(C)C)NC(=O)[C@H](C)NC(=O)CSC[C@@H](C(=O)NCCOCCOCCOCCOCCC(N)=O)NC(=O)[C@H](Cc2ccc(O)cc2)N(C)C(=O)[C@H](Cc2ccccc2)NC(=O)[C@H](CCC(N)=O)NC(=O)[C@H](CCC(=O)NC[C@H](O)[C@@H](O)[C@H](O)[C@H](O)CO)NC(=O)[C@H]([C@@H](C)CC)NC1=O [compound 39] ({CH2CO}-AV[NMePhe(3-Cl)]VWNYY(CH2CO(D-glucamine))IIE(NH(1-deoxy-D-glucityl))QF[NMeY]C[PEG4]-NH2; thioether N-15)
Kd ([1]; pH 6.0, single-cycle kinetics): 12.4 nM

Structure (SMILES): CC[C@H](C)[C@@H]1NC(=O)[C@H](Cc2ccc(O)cc2)NC(=O)[C@H](Cc2ccc(N)nc2)NC(=O)[C@H](CC(N)=O)NC(=O)[C@H](Cc2c[nH]c3ccccc23)NC(=O)[C@H](C(C)C)NC(=O)[C@H](Cc2ccccc2)N(C)C(=O)[C@H](C(C)C)NC(=O)[C@H](C)NC(=O)CSC[C@@H](C(=O)NCCOCCOCCOCCOCCC(N)=O)NC(=O)[C@H](Cc2ccc(O)cc2)N(C)C(=O)[C@H](Cc2ccc(O)cc2)NC(=O)[C@H](CCCNC(=N)N)NC(=O)[C@H](CCCCN)NC(=O)[C@H]([C@@H](C)CC)NC1=O [compound 123]
Kd [1, 3]: 17.4 nM

Structure (SMILES): CCC(CC)[C@@H]1NC(=O)[C@H](Cc2ccc(NCC(=O)O)nc2)NC(=O)[C@H](Cc2ccc(O)cc2)NC(=O)[C@H](CC(N)=O)NC(=O)[C@H](Cc2cn(CC(=O)O)c3ccccc23)NC(=O)[C@H](C(C)C)NC(=O)[C@H](Cc2cccc(Cl)c2)N(C)C(=O)[C@H](C(C)C)NC(=O)[C@H](C)NC(=O)CSC[C@@H](C(=O)NCCOCCOCCOCCOCCC(N)=O)NC(=O)[C@H](Cc2ccc(O)cc2)N(C)C(=O)[C@H](Cc2cccc(C(=O)O)c2)NC(=O)[C@H](CCCNC(=N)N)NC(=O)[C@H](CCC(N)=O)NC(=O)[C@H]([C@@H](C)CC)NC1=O [compound 151]
Kd ([1]; SPR, pH 6.0, Table 2-1-2): 48.2 nM

Structure (SMILES): CC[C@H](C)[C@@H]1NC(=O)[C@H](Cc2ccc(OC)cc2)NC(=O)[C@H](Cc2ccc(N)nc2)NC(=O)[C@H](CC(N)=O)NC(=O)[C@H](Cc2cnc3ccccn23)NC(=O)[C@H](C(C)C)NC(=O)[C@H](Cc2ccccc2)N(C)C(=O)[C@H](C(C)C)NC(=O)[C@H](C)NC(=O)CSC[C@@H](C(=O)NCC(=O)N[C@H](CCC(=O)O)C(=O)N[C@H](CCC(=O)O)C(=O)N[C@H](CCC(=O)O)C(=O)N[C@H](CO)C(=O)N[C@H](CO)C(=O)N[C@@H](CCCCN=[N+]=[N-])C(N)=O)NC(=O)[C@H](Cc2ccc(C(=O)O)cc2)N(C)C(=O)[C@H](Cc2ccncc2)NC(=O)[C@H](CCCNC(=N)N)NC(=O)[C@H](CCCNC(=N)N)NC(=O)[C@H]([C@@H](C)CC)NC1=O [compound 201]
Kd [2]: 212 nM

Structure (SMILES): CC[C@H](C)[C@@H]1NC(=O)[C@H](Cc2ccc(OC)cc2)NC(=O)[C@H](Cc2ccc(N)nc2)NC(=O)[C@H](CC(N)=O)NC(=O)[C@H](Cc2cnc3ccccn23)NC(=O)[C@H](C(C)C)NC(=O)[C@H](Cc2ccccc2)N(C)C(=O)[C@H](C(C)C)NC(=O)[C@H](C)NC(=O)CSC[C@@H](C(=O)NCC(=O)N[C@H](CCC(=O)O)C(=O)N[C@H](CCC(=O)O)C(=O)N[C@H](CCC(=O)O)C(=O)N[C@H](CO)C(=O)N[C@H](CO)C(=O)N[C@@H](CCCCN=[N+]=[N-])C(N)=O)NC(=O)[C@H](Cc2ccc(O)cc2)N(C)C(=O)[C@H](Cc2ccncc2)NC(=O)[C@H](CCCNC(=N)N)NC(=O)[C@H](CCCNC(=N)N)NC(=O)[C@H]([C@@H](C)CC)NC1=O [compound 202]
Kd [2]: 515 nM

Now from value to molecule:

Kd [1, 3]: 13.8 nM
Structure (SMILES): CCC(CC)[C@@H]1NC(=O)[C@H](Cc2ccc(O)cc2)NC(=O)[C@H](Cc2ccc(O)cc2)NC(=O)[C@H](CC(N)=O)NC(=O)[C@H](Cc2c[nH]c3ccccc23)N(C)C(=O)[C@H](C(C)C)NC(=O)[C@H](Cc2ccccc2)N(C)C(=O)[C@H](C(C)C)NC(=O)[C@H](C)NC(=O)CSC[C@@H](C(=O)NCCOCCOCCOCCOCCC(N)=O)NC(=O)[C@H](Cc2ccc(O)cc2)N(C)C(=O)[C@H](Cc2ccc(O)cc2)NC(=O)[C@H](CCCNC(=N)N)NC(=O)[C@H](CCCCN)NC(=O)[C@H]([C@@H](C)CC)NC1=O [compound 117]

Kd [1, 3]: 13.2 nM
Structure (SMILES): CCC(CC)[C@@H]1NC(=O)[C@H](Cc2ccc(O)cc2)NC(=O)[C@H](Cc2ccc(O)cc2)NC(=O)[C@H](CC(N)=O)NC(=O)[C@H](Cc2c[nH]c3ccccc23)N(C)C(=O)[C@H](C(C)C)NC(=O)[C@H](Cc2cccc(Cl)c2)N(C)C(=O)[C@H](C(C)C)NC(=O)[C@H](C)NC(=O)CSC[C@@H](C(=O)NCCOCCOCCOCCOCCC(N)=O)NC(=O)[C@H](Cc2ccc(O)cc2)N(C)C(=O)[C@H](Cc2ccc(O)cc2)NC(=O)[C@H](CCCNC(=N)N)NC(=O)[C@H](CCCCN)NC(=O)[C@H](CO)NC1=O [compound 132] ({CH2CO}-AV[NMePhe(3-Cl)]V[NMeW]NYY[Nva(3-Et)]SKRY[NMeY]C[PEG4]-NH2; thioether N-15)

Kd [1, 3]: 15.3 nM
Structure (SMILES): CC[C@H](C)[C@@H]1NC(=O)[C@H](Cc2ccc(O)cc2)NC(=O)[C@H](Cc2ccc(O)cc2)NC(=O)[C@H](CC(N)=O)NC(=O)[C@H](Cc2c[nH]c3ccccc23)N(C)C(=O)[C@H](C(C)C)NC(=O)[C@H](Cc2cccnc2)N(C)C(=O)[C@H](C(C)C)NC(=O)[C@H](C)NC(=O)CSC[C@@H](C(=O)NCCOCCOCCOCCOCCC(N)=O)NC(=O)[C@H](Cc2ccc(O)cc2)N(C)C(=O)[C@H](Cc2ccc(O)cc2)NC(=O)[C@H](CCCNC(=N)N)NC(=O)[C@H](CCCCN)NC(=O)[C@H]([C@@H](C)CC)NC1=O [compound 135]

Kd ([1]; SPR, pH 6.0, Table 2-1-2): 58.9 nM
Structure (SMILES): CCC(CC)[C@@H]1NC(=O)[C@H](Cc2ccc(OCC(=O)O)cc2)NC(=O)[C@H](Cc2ccc(NCC(=O)O)nc2)NC(=O)[C@H](CC(N)=O)NC(=O)[C@H](Cc2cn(CC(=O)O)c3ccccc23)NC(=O)[C@H](C(C)C)NC(=O)[C@H](Cc2cccc(Cl)c2)N(C)C(=O)[C@H](C(C)C)NC(=O)[C@H](C)NC(=O)CSC[C@@H](C(=O)NCCOCCOCCOCCOCCC(N)=O)NC(=O)[C@H](Cc2ccc(O)cc2)N(C)C(=O)[C@H](Cc2cccc(C(=O)O)c2)NC(=O)[C@H](CCCNC(=N)N)NC(=O)[C@H](CCC(N)=O)NC(=O)[C@H]([C@@H](C)CC)NC1=O [compound 150]

Kd ([1]; SPR, pH 6.0, Table 2-1-2): 116 nM
Structure (SMILES): CCC(CC)[C@@H]1NC(=O)[C@H](Cc2ccc(OCC(=O)O)cc2)NC(=O)[C@H](Cc2ccc(O)cc2)NC(=O)[C@H](CC(N)=O)NC(=O)[C@H](Cc2cn(CC(=O)O)c3ccccc23)NC(=O)[C@H](C(C)C)NC(=O)[C@H](Cc2cccc(Cl)c2)N(C)C(=O)[C@H](C(C)C)NC(=O)[C@H](C)NC(=O)CSC[C@@H](C(=O)NCCOCCOCCOCCOCCC(N)=O)NC(=O)[C@H](Cc2ccc(O)cc2)N(C)C(=O)[C@H](Cc2ccnc(C)c2)NC(=O)[C@H](CCCNC(=N)N)NC(=O)[C@H](CCC(N)=O)NC(=O)[C@H]([C@@H](C)CC)NC1=O [compound 152] ({CH2CO}-AV[NMePhe(3-Cl)]V[Trp(1-CH2COOH)]NYY(Carboxymethyl)[Nva(3-Et)]IQR[X6][NMeY]C[PEG4]-NH2; thioether N-15)

Kd ([1]; pH 6.0, single-cycle kinetics): 0.678 nM
Structure (SMILES): CC[C@H](C)[C@@H]1NC(=O)[C@H](Cc2ccc(OC)cc2)NC(=O)[C@H](Cc2ccc(O)cc2)NC(=O)[C@H](CC(N)=O)NC(=O)[C@H](Cc2c[nH]c3ccccc23)N(C)C(=O)[C@H](C(C)C)NC(=O)[C@H](Cc2cccc(Cl)c2)N(C)C(=O)[C@H](C(C)C)NC(=O)[C@H](C)NC(=O)CSC[C@@H](C(=O)NCCOCCOCCOCCOCCC(N)=O)NC(=O)[C@H](Cc2ccc(O)cc2)N(C)C(=O)[C@H](Cc2ccccc2)NC(=O)[C@H](CCCNC(=N)N)NC(=O)[C@H](CCC(=O)NCCCN)NC(=O)[C@H]([C@@H](C)CC)NC1=O [compound 171]
